Target: T1, GRK6, recombinant full-length GST-tagged human protein (Homo sapiens, UniProt P43250)
T1 construct: Enzyme: 20 nM GRK6, recombinant full-length GST-tagged human protein; GST
Test: GRK6 assay, IC50 determination (8-point concentration-response)
Type: biochemical
Experimental: The following assay conditions were used.
Buffer: 50 mM TRIS-HCl, pH 7.5, 5 mM MgCl2, 2 mM DTT, 0.01% Triton X-100, 10 μM Na3VO4, 10 μM b-GP, 1% DMSO
Enzyme: 20 nM GRK6, recombinant full-length GST-tagged human protein
Peptide substrate (Peptide 216): 1 μM
One hundred two compounds (1-1-1-102) were further characterized by determining IC50 values in a GRK6 assay. This screen has been previously described in WO 2013/063458, which is incorporated by reference in its entirety herein. Briefly, the following activities were performed: 8-point concentration-response determinations in singlicate wells (top concentration=60 μM, 3-fold dilution steps); Repeat tests for QC failed or inconclusive compounds; and Repeat tests (titrate down) for compounds with >50% inhibition at all tested concentrations.
Twelve compounds (2-1-2-12) were further characterized by determining the IC50 values in a GRK6 assay. This screen has been previously described in WO 2013/063458, which is incorporated by reference in its entirety herein. Specific activities were performed as described above (Example 18).
Thirty-six compounds (3-1-3-36) were further characterized by determining the IC50 values in a GRK6 assay. This screen has been previously described in WO 2013/063458, which is incorporated by reference in its entirety herein. Specific activities were performed as described above (Example 18).
Fifty-four compounds (4-1-4-54) were further characterized by determining the IC50 values in a GRK6 assay. This screen has been previously described in WO 2013/063458, which is incorporated by reference in its entirety herein. Specific activities were performed as described above (Example 18).

[1] = Series 3 (Table 13), conditions as Example 18
[2] = Series 4 (Table 14), conditions as Example 18
[3] = Series 2 (Table 12), conditions as Example 18
[4] = Series 1 (Table 11), 20 nM GRK6, ATP 12 μM (Km), Peptide 216 1 μM, incubation 7 h

T1 sequence (P43250 whole entry): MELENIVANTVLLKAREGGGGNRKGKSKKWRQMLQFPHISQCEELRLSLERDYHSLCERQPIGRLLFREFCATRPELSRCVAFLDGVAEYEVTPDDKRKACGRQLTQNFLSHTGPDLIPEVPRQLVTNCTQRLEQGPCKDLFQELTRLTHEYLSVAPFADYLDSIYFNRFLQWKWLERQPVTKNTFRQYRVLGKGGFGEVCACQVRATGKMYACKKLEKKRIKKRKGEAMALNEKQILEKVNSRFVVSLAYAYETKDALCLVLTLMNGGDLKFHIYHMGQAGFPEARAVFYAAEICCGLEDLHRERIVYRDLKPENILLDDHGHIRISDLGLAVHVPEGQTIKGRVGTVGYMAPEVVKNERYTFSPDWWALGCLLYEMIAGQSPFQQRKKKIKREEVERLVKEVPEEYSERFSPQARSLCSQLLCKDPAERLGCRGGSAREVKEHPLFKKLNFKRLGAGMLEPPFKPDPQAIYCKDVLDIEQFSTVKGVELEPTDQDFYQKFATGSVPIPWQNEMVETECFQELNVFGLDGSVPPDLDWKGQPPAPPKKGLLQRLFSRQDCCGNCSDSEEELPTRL

## CNS(=O)(=O)c1ccc(-c2ccc(-c3nnc(SCc4nnn[nH]4)[nH]3)o2)cc1 [Compound 3-22]
[1]
  IC50: 3.78 µM

## c1cc2ccc(-c3ccc(-c4nnc(SCc5nnn[nH]5)[nH]4)o3)cc2[nH]1 [Compound 3-12]
[1]
  IC50: 1.58 µM

## CN(C)S(=O)(=O)c1cccc(-c2ccc(-c3nnc(SCc4nnn[nH]4)[nH]3)o2)c1 [Compound 3-34]
[1]
  IC50: 9.09 µM

## O=C(O)CSc1nnc(-c2cnn(-c3cccc(Cl)c3)c2)[nH]1 [Compound 4-6, 2-((5-(1-(3-chlorophenyl)-1H-pyrazol-4-yl)-4H-1,2,4-triazol-3-yl)thio)acetic acid]
[2]
  IC50: 2.01 µM

## O=C(O)CSc1cc(-c2ccc(-c3ccc(Cl)c(Cl)c3)s2)[nH]n1 [Compound 2-2]
[3]
  IC50: 0.402 µM

## COc1ccc2cc(-c3ccc(-c4nnc(SCc5nnn[nH]5)[nH]4)o3)ccc2c1 [Compound 3-11]
[1]
  IC50: 1.53 µM

## O=C(O)CSc1nnc(-c2ccc(-c3ccc4[nH]c(-c5ccccc5)cc4c3)o2)[nH]1 [Compound 1-4]
[4]
  IC50: 0.133 µM

## CS(=O)(=O)Nc1ccc(-c2ccc(-c3nnc(SCc4nnn[nH]4)[nH]3)o2)cc1 [Compound 3-21]
[1]
  IC50: 3.71 µM

## COc1ccc(-c2ccc(-c3nnc(SCC(=O)O)[nH]3)o2)cc1OCc1ccccc1 [Compound 1-54]
[4]
  IC50: 0.516 µM

## O=C(O)CSc1nnc(-c2ccc(-c3cc4ccccc4o3)o2)[nH]1 [Compound 1-32]
[4]
  IC50: 0.327 µM

## O=C(O)CSc1nnc(-c2ccc(F)cn2)[nH]1 [Compound 4-35]
[2]
  IC50: 78.7 µM

## Cc1nc[nH]c1-c1nnc(SCC(=O)O)[nH]1 [Compound 4-50]
[2]
  IC50: > 100 µM

## O=C(O)CSc1nnc(-c2ccc(-c3cccc(C(F)(F)F)c3)o2)[nH]1 [Compound 1-56]
[4]
  IC50: 0.595 µM

## O=C(O)CSc1nnc(-c2ccc(-c3ccccc3Cl)o2)[nH]1 [Compound 1-85]
[4]
  IC50: 1.44 µM

## CCOC(=O)c1ccc(-c2ccc(-c3nnc(SCC(=O)O)[nH]3)o2)cc1 [Compound 1-74]
[4]
  IC50: 1.02 µM

## O=C(O)CSc1nnc(-c2ccc(-c3ccccc3)s2)[nH]1 [Compound 4-5]
[2]
  IC50: 1.27 µM

## Cc1nn(C)cc1-c1ccc(-c2nnc(SCC(=O)O)[nH]2)o1 [Compound 1-96]
[4]
  IC50: 3.31 µM

## COc1ccc2c(-c3nnc(SCC(=O)O)[nH]3)c[nH]c2c1 [Compound 4-27]
[2]
  IC50: 20.7 µM

## Cc1ncsc1-c1nnc(SCC(=O)O)[nH]1 [Compound 4-51]
[2]
  IC50: > 100 µM

## CSc1nc(-c2nnc(SCC(=O)O)[nH]2)ccc1C#N [Compound 4-31]
[2]
  IC50: 31.2 µM

## CCCOc1cccc(-c2ccc(-c3nnc(SCC(=O)O)[nH]3)o2)c1 [Compound 1-34]
[4]
  IC50: 0.341 µM

## Cc1ccc2sc(-c3nnc(SCC(=O)O)[nH]3)cc2c1 [Compound 4-9]
[2]
  IC50: 2.61 µM

## O=C(O)CSc1nnc(-c2ccc(-c3cccc(OCc4cccc([N+](=O)[O-])c4)c3)o2)[nH]1 [Compound 1-2]
[4]
  IC50: 0.126 µM

## O=C(O)CSc1nnc(-c2cc3cccc4c3n(c2=O)CC4)[nH]1 [Compound 4-42]
[2]
  IC50: > 100 µM

## O=C(O)CSc1nnc(-c2ccc(-c3ccc4ncccc4c3)o2)[nH]1 [Compound 1-30, 2-((3-(5-(quinolin-6-yl)furan-2-yl)-1H-1,2,4-triazol-5-yl)thio)acetic acid]
[4]
  IC50: 0.315 µM

## O=C(O)CSc1nnc(-c2cccn2S(=O)(=O)c2ccccc2)[nH]1 [Compound 4-44]
[2]
  IC50: > 100 µM

## COc1ccc(-c2ccc(-c3nnc(SCC(=O)O)[nH]3)o2)cc1/C=N/OCc1ccccc1 [Compound 1-66]
[4]
  IC50: 0.734 µM

## O=C(O)CSc1nnc(-c2ccc(-c3cccc(OCc4ccccc4)c3)o2)[nH]1 [Compound 1-23]
[4]
  IC50: 0.273 µM

## O=C(O)CSc1cc(-c2ccc(Br)o2)[nH]n1 [Compound 2-11]
[3]
  IC50: 5.44 µM

## Nc1ncc(-c2nnc(SCC(=O)O)[nH]2)s1 [Compound 4-13]
[2]
  IC50: 4.64 µM

## O=C(O)CSc1nnc(-c2ccc(-c3cccc(OCc4ccc(C(F)(F)F)cc4)c3)o2)[nH]1 [Compound 1-60]
[4]
  IC50: 0.63 µM

## O=C(O)CSc1nnc(-c2ccc(-c3ccc(C(F)(F)F)nc3)o2)[nH]1 [Compound 1-90]
[4]
  IC50: 2.04 µM

## O=C(O)CSc1nnc(-c2ccc(-c3ccc(F)c(Cl)c3)o2)[nH]1 [Compound 1-29]
[4]
  IC50: 0.314 µM

## N#Cc1ccc(-c2ccc(-c3nnc(SCc4nnn[nH]4)[nH]3)o2)cc1 [Compound 3-33]
[1]
  IC50: 8.91 µM

## O=C(O)CSc1nnc(-c2ccc(-c3ccc(Cl)c(Cl)c3)o2)[nH]1 [Compound 1-9]
[4]
  IC50: 0.175 µM

## O=C(O)CSc1nnc(-c2cnn(-c3ccccc3)c2)[nH]1 [Compound 4-3]
[2]
  IC50: 1.01 µM

## O=C(O)CSc1nnc(-c2ccc(-c3ccc4occc4c3)o2)[nH]1 [Compound 1-47]
[4]
  IC50: 0.424 µM

## O=C(O)CSc1nnc(-c2ccc(-c3ccccc3)o2)[nH]1 [Compound 1-73]
[4]
  IC50: 0.996 µM

## COc1cccc(-c2ccc(-c3nnc(SCC(=O)O)[nH]3)o2)c1 [Compound 1-44]
[4]
  IC50: 0.402 µM

## O=C(O)CSc1cc(-c2ccc(-c3ccc4c(c3)[nH]c3ccccc34)o2)[nH]n1 [Compound 2-9]
[3]
  IC50: 1.29 µM

## O=C(O)CSc1nnc(-c2ccc(-c3cccc4[nH]c(-c5ccccc5)cc34)o2)[nH]1 [Compound 1-5]
[4]
  IC50: 0.137 µM

## CS(=O)(=O)c1cccc(-c2ccc(-c3nnc(SCc4nnn[nH]4)[nH]3)o2)c1 [Compound 3-31]
[1]
  IC50: 7.45 µM

## COc1ccc(-c2ccc(-c3nnc(SCC(=O)O)[nH]3)o2)cc1C=O [Compound 1-17]
[4]
  IC50: 0.245 µM

## COc1ccc2cc(-c3ccc(-c4nnc(SCC(=O)O)[nH]4)o3)ccc2c1 [Compound 1-16]
[4]
  IC50: 0.241 µM

## O=C(O)CSc1nnc(-c2ccc(-c3ccc4c(c3)CCC(=O)N4)o2)[nH]1 [Compound 1-72]
[4]
  IC50: 0.987 µM

## Cc1n[nH]c(C)c1-c1ccc(-c2nnc(SCC(=O)O)[nH]2)o1 [Compound 1-99]
[4]
  IC50: 4.37 µM

## Cc1ccc(-c2ccc(-c3nnc(SCC(=O)O)[nH]3)o2)cc1Cl [Compound 1-37]
[4]
  IC50: 0.359 µM

## Cc1ccc(-c2ccc(-c3nnc(SCC(=O)O)[nH]3)o2)cc1[N+](=O)[O-] [Compound 1-65]
[4]
  IC50: 0.711 µM

## FC(F)(F)c1cccc(-c2ccc(-c3nnc(SCc4nnn[nH]4)[nH]3)o2)c1 [Compound 3-16]
[1]
  IC50: 2.55 µM

## c1cnc2c(-c3ccc(-c4nnc(SCc5nnn[nH]5)[nH]4)o3)cccc2c1 [Compound 3-14]
[1]
  IC50: 2.34 µM

## Cc1cc(-c2ccc(-c3nnc(SCC(=O)O)[nH]3)o2)ccc1Cl [Compound 1-42]
[4]
  IC50: 0.392 µM

## CC(=O)Nc1cccc(-c2ccc(-c3nnc(SCc4nnn[nH]4)[nH]3)o2)c1 [Compound 3-23]
[1]
  IC50: 3.81 µM

## O=C(O)CSc1cc(-c2ccc(-c3ccc4ccccc4c3)s2)[nH]n1 [Compound 2-7]
[3]
  IC50: 0.788 µM

## c1ccc2ncc(-c3ccc(-c4nnc(SCc5nnn[nH]5)[nH]4)o3)cc2c1 [Compound 3-6]
[1]
  IC50: 1.1 µM

## O=C(O)CSc1nnc(-c2ccc(C#Cc3ccc4ccccc4c3)o2)[nH]1 [Compound 1-19, 2-((5-(5-(naphthalen-2-ylethynyl)furan-2-yl)-4H-1,2,4-triazol-3-yl)thio)acetic acid]
[4]
  IC50: 0.259 µM

## O=C(O)CSc1nnc(-c2csc3ccccc23)[nH]1 [Compound 4-7]
[2]
  IC50: 2.56 µM

## O=C(O)CSc1nnc(-c2ccc(-c3cc(Cl)cc(Cl)c3)o2)[nH]1 [Compound 1-10]
[4]
  IC50: 0.186 µM

## Clc1cc(Cl)cc(-c2ccc(-c3nnc(SCc4nnn[nH]4)[nH]3)o2)c1 [Compound 3-2]
[1]
  IC50: 0.545 µM

## O=C(O)CSc1nnc(-c2ccc(-c3cnn(CCN4CCOCC4)c3)o2)[nH]1 [Compound 1-100]
[4]
  IC50: 6.2 µM

## O=C(O)CSc1nnc(-c2ccc(-c3cc(Cl)cc(Cl)c3)s2)[nH]1 [Compound 4-1]
[2]
  IC50: 0.595 µM

## COc1cccc(-c2nnc(SCC(=O)O)[nH]2)n1 [Compound 4-32]
[2]
  IC50: 32.5 µM

## Cc1noc(C)c1-c1nnc(SCC(=O)O)[nH]1 [Compound 4-40]
[2]
  IC50: > 100 µM

## Cc1cccc(-c2nnc(SCc3nnn[nH]3)[nH]2)c1 [Compound 3-35, 5-(((5-(m-tolyl)-1H-1,2,4-triazol-3-yl)thio)methyl)-1H-tetrazole]
[1]
  IC50: 16.9 µM

## COc1ccc(C(F)(F)F)cc1-c1ccc(-c2nnc(SCc3nnn[nH]3)[nH]2)o1 [Compound 3-9]
[1]
  IC50: 1.28 µM

## c1cc2cc(-c3ccc(-c4nnc(SCc5nnn[nH]5)[nH]4)o3)ccc2[nH]1 [Compound 3-8]
[1]
  IC50: 1.27 µM

## O=C(O)CSc1nnc(-c2ccc(-c3ccccc3C(F)(F)F)o2)[nH]1 [Compound 1-94]
[4]
  IC50: 3.1 µM

## O=C(O)CSc1nnc(-c2c[nH]nc2-c2ccccc2)[nH]1 [Compound 4-15]
[2]
  IC50: 6.29 µM

## O=C(O)CSc1nnc(-c2ccc(-c3ccc(Oc4ccccc4)cc3)o2)[nH]1 [Compound 1-25]
[4]
  IC50: 0.284 µM

## COc1ccc2cc(-c3[nH]nc(SCC(=O)O)c3Br)ccc2c1 [Compound 4-53]
[2]
  IC50: > 100 µM

## O=C(O)CSc1nnc(-c2ccc(-c3ccc4[nH]cc(-c5ccccc5)c4c3)o2)[nH]1 [Compound 1-1]
[4]
  IC50: 0.079 µM

## O=[N+]([O-])c1cc(-c2ccccc2)cc(-c2nnc(SCc3nnn[nH]3)[nH]2)c1 [Compound 3-36]
[1]
  IC50: 9.05 µM

Source: patent US9902739B2, “Small molecule inhibitors of G protein coupled receptor 6 kinases polypeptides” (Mayo Foundation for Medical Education and Research, priority 2014, dated 2018)
